pIC50: −log10 of the molar value. *1 amine or outer side, *2 acyl side, *3 side chain or, on linkers, in order; H or OH if unused. Where a SMILES comes first, the peptide text is derived from it. [ ]: non-standard residue; d: D form. X2 = C[C@@H](O)[C@@H](CCC(=O)[*:2])N[*:1]; Oic = O=C(O)[C@@H]1C[C@@H]2CCCC[C@@H]2N1; Gly(octyl) = CCCCCCCC[C@H](N)C(=O)O; N(CH2CH2COOH)Gly = O=C(O)CCNCC(=O)O; AllylGly = C=CC[C@H](N)C(=O)O; Nlys = NCCCCNCC(=O)O
How the values were obtained:
Format in all cases: biochemical
[1] = target: T1, human neutrophil elastase (Homo sapiens, UniProt P08246); assay: Inhibition of human neutrophil elastase (hydrolysis of MeOSuc-AAPV-pNA); settings: substrate MeOSuc-AAPV-pNA 0.3 mM, enzyme 10 nM, 37° C., pH 8; read-out: Human neutrophil elastase (hNE) IC50
T1 construct: purchased Serva Electrophoresis, Germany
T1 sequence (P08246 30-267): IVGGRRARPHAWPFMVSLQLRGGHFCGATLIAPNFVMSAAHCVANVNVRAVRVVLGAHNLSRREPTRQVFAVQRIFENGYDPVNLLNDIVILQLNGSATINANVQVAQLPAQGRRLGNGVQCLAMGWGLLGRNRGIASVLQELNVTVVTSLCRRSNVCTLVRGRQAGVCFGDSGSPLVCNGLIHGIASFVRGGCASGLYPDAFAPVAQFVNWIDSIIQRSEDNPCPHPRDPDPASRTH
Method: 2.2 Inhibition of Human Neutrophil Elastase
The ability of the peptides of the invention to inhibit the hydrolysis activity of human neutrophil elastase (Serva Electrophoresis, Germany) using the synthetic tetrapeptidic substrate MeOSuc-AAPV-pNA (Bachem, Switzerland) was determined as follows:
(§1) The above substrate (0.3 mM) and human neutrophil elastase (10 nM) were incubated at 37° C. with serial dilutions of the peptides (1% DMSO final) in assay buffer (50 mM Tris, pH 8, 300 mM NaCl, 0.01% Tween20). The release of pNA was followed by monitoring the change in absorbance at 405 nm for 30 minutes. Control assays with the same assay set-up as above, but without peptide, ran linearly. The dose-response data were fitted to the 4-parameter Hill equation providing the IC50 value using Graphpad (Prism 5).

[2] = target: T2, porcine pancreatic elastase (Sus scrofa, UniProt P00772); assay: Inhibition of porcine pancreatic elastase (hydrolysis of MeOSuc-AAA-pNA); settings: for hNE/PPE selectivity: ratio of PPE IC50 to hNE IC50; for pIC50: substrate MeOSuc-AAA-pNA 1 mM, enzyme 15 nM, 37° C., pH8, read-out: Porcine pancreatic elastase (PPE) IC50
T2 construct: purchased Sigma, USA
Method: 2.3 Inhibition of Porcine Pancreatic Elastase
The ability of the peptides of the invention to inhibit the hydrolysis activity of porcine pancreatic elastase (Sigma, USA) using the synthetic tripeptidic substrate MeOSuc-AAA-pNA (Bachem, Switzerland) was determined as follows:
as §1, with “(1” for “(0.3”, “porcine pancreatic” for “neutrophil”, “(15” for “(10”, “(0.5%” for “(1%”, “pH8, 100” for “pH 8, 300”

[3] = target: T3, human proteinase 3 (Homo sapiens, UniProt P24158); assay: Inhibition of human proteinase 3 (substrate Boc-Ala-Ala-Nva-SBzl); settings: for hNE/hPr3 selectivity: ratio of hPr3 IC50 to hNE IC50; for pIC50: substrate Boc-Ala-Ala-Nva-SBzl 1 mM, enzyme 10 nM, 37° C., pH7.4, read-out: Human proteinase 3 (hPr3) IC50
T3 construct: purchased Elastin Products Company, USA
T3 sequence (P24158 28-248): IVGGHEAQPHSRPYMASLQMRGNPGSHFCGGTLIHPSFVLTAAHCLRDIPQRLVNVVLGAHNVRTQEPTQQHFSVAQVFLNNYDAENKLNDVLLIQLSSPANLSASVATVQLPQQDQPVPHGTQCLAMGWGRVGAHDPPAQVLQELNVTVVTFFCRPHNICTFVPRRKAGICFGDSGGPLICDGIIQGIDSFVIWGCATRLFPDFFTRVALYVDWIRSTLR
Method: 2.4 Inhibition of Human Proteinase 3
The inactivation of human proteinase 3 (Elastin Products Company, USA) by the peptides of the invention using synthetic tripeptidic substrate Boc-Ala-Ala-Nva-SBzl (Elastin Products Company, USA) was determined as follows:
as §1, with “(1 mM), 4,4′-dithiodipyridine (250 μM)” for “(0.3 mM)”, “proteinase 3” for “neutrophil elastase”, “(0.5%” for “(1%”, “pH7.4, 150” for “pH 8, 300”, “reaction process” for “release of pNA”, “340” for “405”

T2 sequence (P00772 27-266): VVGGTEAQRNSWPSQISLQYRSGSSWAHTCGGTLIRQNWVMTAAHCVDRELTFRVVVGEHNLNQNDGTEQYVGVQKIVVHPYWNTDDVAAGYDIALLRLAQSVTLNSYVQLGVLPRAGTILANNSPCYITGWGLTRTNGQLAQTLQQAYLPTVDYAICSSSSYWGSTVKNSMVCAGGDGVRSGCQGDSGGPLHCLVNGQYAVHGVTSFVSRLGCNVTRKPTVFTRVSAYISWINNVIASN

Structure (SMILES)	pIC50 [1]	hNE/PPE selectivity [2]	pIC50 [2]	hNE/hPr3 selectivity [3]	pIC50 [3]
CCCCCCCC[C@@H]1NC(=O)[C@@H]2CCCN2C(=O)[C@H]2CCCN2C(=O)CC[C@H]([C@@H](C)O)NC(=O)[C@H](CCCCN)NC(=O)[C@H](CCC(N)=O)NC(=O)[C@@H]2CCCN2C(=O)[C@@H]2CCCN2C(=O)[C@H]([C@@H](C)CC)NC(=O)[C@H](CO)NC(=O)[C@H](C)NC(=O)[C@H]([C@@H](C)O)NC(=O)[C@H](CCC(=O)O)NC1=O [Example 11, Cyclo(-OctGly-Glu-Thr-Ala-Ser-Ile-Pro-Pro-Gln-Lys-[H-γ^4-DiHThr-OH]-^DPro-Pro-)] (cyclo([Gly(octyl)]ETASIPPQK[X2][dP]P))	7.94	4217	4.31	1835	4.68
CCCCCCCC[C@@H]1NC(=O)[C@H](Cc2ccc(O)cc2)NC(=O)[C@@H](C(C)C)NC(=O)[C@H]([C@@H](C)O)NC(=O)[C@H](CCCCN)NC(=O)[C@H](CCC(N)=O)NC(=O)[C@@H]2CCCN2C(=O)[C@@H]2CCCN2C(=O)[C@H]([C@@H](C)CC)NC(=O)[C@H](CO)NC(=O)[C@H](C)NC(=O)[C@H]([C@@H](C)O)NC(=O)[C@H](CCC(=O)O)NC1=O [Example 21, Cyclo(-OctGly-Glu-Thr-Ala-Ser-Ile-Pro-Pro-GI n-Lys-Thr-^DVal-Tyr-)] (cyclo([Gly(octyl)]ETASIPPQKT[dV]Y))	7.89	822	4.97	1008	4.89
CCCCCCCC[C@@H]1NC(=O)[C@@H]2C[C@@H]3CCCC[C@@H]3N2C(=O)[C@H]2CCCN2C(=O)[C@H]([C@@H](C)O)NC(=O)[C@H](CCCCN)NC(=O)[C@H](CCC(N)=O)NC(=O)[C@@H]2CCCN2C(=O)[C@@H]2CCCN2C(=O)[C@H]([C@@H](C)CC)NC(=O)[C@H](CO)NC(=O)[C@H](C)NC(=O)[C@H]([C@@H](C)O)NC(=O)[C@H](CCC(=O)O)NC1=O [Example 6, Cyclo(-OctGly-Glu-Thr-Ala-Ser-Ile-Pro-Pro-Gln-Lys-Thr-^DPro-Oic-)] (cyclo([Gly(octyl)]ETASIPPQKT[dP][Oic]))	7.92	321	5.41	372	5.35
CCCCCCCC[C@@H]1NC(=O)[C@H](C)NC(=O)[C@@H](C)NC(=O)[C@H]([C@@H](C)O)NC(=O)[C@H](CCCCN)NC(=O)[C@H](CCC(N)=O)NC(=O)[C@@H]2CCCN2C(=O)[C@@H]2CCCN2C(=O)[C@H]([C@@H](C)CC)NC(=O)[C@H](CO)NC(=O)[C@H](C)NC(=O)[C@H]([C@@H](C)O)NC(=O)[C@H](CCC(=O)O)NC1=O [Example 20, Cyclo(-OctGly-Glu-Thr-Ala-Ser-Ile-Pro-Pro-GI n-Lys-Thr-^DAla-Ala-)] (cyclo([Gly(octyl)]ETASIPPQKT[dA]A))	7.88	2128	4.55	669	5.05
CCCCCCCC[C@@H]1NC(=O)[C@H](C(C)C)NC(=O)[C@@H](CCCCN)NC(=O)[C@H]([C@@H](C)O)NC(=O)[C@H](CCCCN)NC(=O)[C@H](CCC(N)=O)NC(=O)[C@@H]2CCCN2C(=O)[C@@H]2CCCN2C(=O)[C@H]([C@@H](C)CC)NC(=O)[C@H](CO)NC(=O)[C@H](C)NC(=O)[C@H]([C@@H](C)O)NC(=O)[C@H](CCC(=O)O)NC1=O [Example 26, Cyclo(-OctGly-Glu-Thr-Ala-Ser-Ile-Pro-Pro-GI n-Lys-Thr-^DLys-Val-)] (cyclo([Gly(octyl)]ETASIPPQKT[dK]V))	7.97	4415	4.33	472	5.30
CCCCCCCC[C@@H]1NC(=O)[C@@H](CCC(=O)O)NC(=O)[C@H]2CCCN2C(=O)[C@H]([C@@H](C)O)NC(=O)[C@H](CCCCN)NC(=O)[C@H](CCC(N)=O)NC(=O)[C@@H]2CCCN2C(=O)[C@@H]2CCCN2C(=O)[C@H]([C@@H](C)CC)NC(=O)[C@H](CO)NC(=O)[C@H](C)NC(=O)[C@H]([C@@H](C)O)NC(=O)[C@H](CCC(=O)O)NC1=O [Example 40, Cyclo(-OctGly-Glu-Thr-Ala-Ser-Ile-Pro-Pro-Gln-Lys-Thr-^DPro-^DGlu-)] (cyclo([Gly(octyl)]ETASIPPQKT[dP][dE]))	8.89	>76923	< 4.00	>76923	< 4.00
CCCCCCCC[C@@H]1NC(=O)[C@@H]2CCCN2C(=O)[C@H]2CCCN2C(=O)[C@H]([C@@H](C)O)NC(=O)[C@H](CCCCN)NC(=O)[C@H](CCC(N)=O)NC(=O)[C@@H]2CCCN2C(=O)CN(CCC(=O)O)C(=O)[C@H]([C@@H](C)CC)NC(=O)[C@H](CO)NC(=O)[C@H](C)NC(=O)[C@H]([C@@H](C)O)NC(=O)[C@H](CCC(=O)O)NC1=O [Example 7, Cyclo(-OctGly-Glu-Thr-Ala-Ser-Ile-Nglu-Pro-Gln-Lys-Thr-^DPro-Pro-)] (cyclo([Gly(octyl)]ETASI[N(CH2CH2COOH)Gly]PQKT[dP]P))	7.88	295	5.41	305	5.39

More lines, in order of rising pIC50 [1], values ahead:

pIC50 [1]	hNE/PPE selectivity [2]	pIC50 [2]	hNE/hPr3 selectivity [3]	pIC50 [3]	Structure (SMILES)
7.82	2080	4.51	4013	4.22	C=CC[C@@H]1NC(=O)[C@H]([C@@H](C)O)NC(=O)[C@H](CCC(=O)O)NC(=O)[C@H](CCC(=O)N[C@@H](Cc2ccccc2)C(=O)O)NC(=O)[C@@H]2CCCN2C(=O)[C@H]2CCCN2C(=O)[C@H](Cc2ccc(O)cc2)NC(=O)[C@H](CCCCN)NC(=O)[C@H](CCC(N)=O)NC(=O)[C@@H]2CCCN2C(=O)[C@@H]2CCCN2C(=O)[C@H]([C@@H](C)CC)NC(=O)[C@H](CO)NC1=O [Example 17, Cyclo(-Glu(Phe)-Glu-Thr-AllylGly-Ser-Ile-Pro-Pro-Gln-Lys-Tyr-^DPro-Pro-)] (cyclo(E(Phe)ET[AllylGly]SIPPQKY[dP]P))
7.91	4847	4.22	5677	4.15	CCCCCCCC[C@@H]1NC(=O)[C@H](CCCCN)NC(=O)[C@@H](C(C)C)NC(=O)[C@H]([C@@H](C)O)NC(=O)[C@H](CCCCN)NC(=O)[C@H](CCC(N)=O)NC(=O)[C@@H]2CCCN2C(=O)[C@@H]2CCCN2C(=O)[C@H]([C@@H](C)CC)NC(=O)[C@H](CO)NC(=O)[C@H](C)NC(=O)[C@H]([C@@H](C)O)NC(=O)[C@H](CCC(=O)O)NC1=O [Example 22, Cyclo(-OctGly-Glu-Thr-Ala-Ser-Ile-Pro-Pro-Gln-Lys-Thr-^DVal-Lys-)] (cyclo([Gly(octyl)]ETASIPPQKT[dV]K))
8.11	208	5.80	195	5.82	CCCCCCCC[C@@H]1NC(=O)[C@@H]2CCCN2C(=O)[C@H]2CCCN2C(=O)[C@H]([C@@H](C)O)NC(=O)[C@H](CCCCN)NC(=O)[C@H](CCC(N)=O)NC(=O)CN(CCCCN)C(=O)[C@@H]2CCCN2C(=O)[C@H]([C@@H](C)CC)NC(=O)[C@H](CO)NC(=O)[C@H](C)NC(=O)[C@H]([C@@H](C)O)NC(=O)[C@H](CCC(=O)O)NC1=O [Example 35, Cyclo(-OctGly-Glu-Thr-Ala-Ser-Ile-Pro-Nlys-Gln-Lys-Thr-^DPro-Pro-)] (cyclo([Gly(octyl)]ETASIP[Nlys]QKT[dP]P))
